Experimental data taken from US6730683B2, “Compounds of heteroaryl substituted imidazole, their pharmaceutical compositions and uses” (SmithKline Beecham Corporation, priority 1997, dated 2004).

Assays:
[1] = test system: human PGHS-2 protein expression in LPS stimulated human monocytes; test: Prostoglandin Endoperoxide Synthase-2 (PGHS-2) Assay; format: cell-based; details: for LPS induced PGHS-2 protein expression (inactive in this assay): up to 10 uM; for inhibited LPS induced PGHS-2 protein expression (active in this assay): rank order potency similar to that for inhibiting cytokine production
Experimental: The following assay describes a method for determining the inhibitory effects of compounds of Formula (I) on human PGHS-2 protein expression in LPS stimulated human monocytes.
Human peripheral blood monocytes were isolated from buffy coats by centrifugation through Ficoll and Percoll gradients. Cells were seeded at 2×10^6/well in 24 well plates and allowed to adhere for 1 hour in RPMI supplemented with 1% human AB serum, 20 mM L-glutamine, Penicillin-Streptomycin and 10 mM HEPES. Compounds were added at various concentrations and incubated at 37° C. for 10 minutes. LPS was added at 50 ng/well (to induce enzyme expression) and incubated overnight at 37° C. The supernatant was removed and cells washed once in cold PBS. The cells were lysed in 100 μl of cold lysis buffer(50 mM Tris/HCl pH 7.5, 150 mM NaCl, 1% NP40, 0.5% sodium deoxycholate, 0.1% SDS, 300 ug/ml DNAse, 0.1% TRITON X-100, 1 mM PMSF, 1 mM leupeptin, 1 mM pepstatin). The lysate was centrifuged (10,000×g for 10 min. at 4° C.) to remove debris and the soluble fraction was subjected to SDS PAGE. analysis (12% gel). Protein separated on the gel were transferred onto nitrocellulose membrane by electrophoretic means for 2 hours at 60 volts. The membrane was pretreated for one hour in PBS/0.1% Tween 20 with 5% non-fat dry milk. After washing 3 times in PBS/Tween buffer, the membrane was incubated with a 1:2000 dilution of a monospecific antiserum to PGHS-2 or a 1:1000 dilution of an antiserum to PGHS-1 in PBS/Tween with 1% BSA for one hour with continuous shaking. The membrane was washed 3× in PBS/Tween and then incubated with a 1:3000 dilution of horseradish peroxidase conjugated donkey antiserum to rabbit Ig (Amersham) in PBS/Tween with 1% BSA for one hour with continuous shaking. The membrane was then washed 3× in PBS/Tween and the ECL immunodetection system (Amersham) was used to detect the level of expression of prostaglandin endoperoxide synthases-2.

[2] = test system: pro-inflammatory proteins including, IL-6, IL-8, GM-CSF and COX-2; details: cited from earlier work

C[S+]([O-])c1ccc(-c2nc3n(c2-c2ccncc2)CCC3)cc1 (stereo not shown) [2-(4-Methylsulfinylphenyl)-3-(4-pyridyl)-6,7-dihydro-(5H)-pyrrolo[1,2-a]imidazole]
LPS induced PGHS-2 protein expression (inactive in this assay) [1]: inactive

Fc1ccc(-c2nc3n(c2-c2ccncc2)CCS3)cc1 [6-(4-Fluoro-phenyl)-2,3-dihydro-5-(4-pyridinyl)imidazo[2,1-b]thiazole]
inhibited LPS induced PGHS-2 protein expression (active in this assay) [1]: active

C[C@@H]1C[C@H]2[C@@H]3CCC4=CC(=O)C=C[C@]4(C)[C@@]3(F)[C@@H](O)C[C@]2(C)[C@@]1(O)C(=O)CO [Dexamethasone]
inhibited LPS induced PGHS-2 protein expression (active in this assay) [1]: active

COc1ccc(C2CNC(=O)C2)cc1OC1CCCC1 (stereo not shown) [Rolipram]
LPS induced PGHS-2 protein expression (inactive in this assay) [1]: inactive

C[S+]([O-])c1ccc(-c2nc(-c3ccncc3)c(-c3ccc(F)cc3)[nH]2)cc1 (stereo not shown) [SB 203580]
synthesis of pro-inflammatory proteins including IL-6, IL-8, GM-CSF and COX-2 [2]: decrease

Fc1ccc(-c2nc3n(c2-c2ccncc2)CCS3)cc1 [SK&F 86002]
synthesis of pro-inflammatory proteins including IL-6, IL-8, GM-CSF and COX-2 [2]: decrease

O=C1CCN(c2ccccc2)N1 [phenidone]
LPS induced PGHS-2 protein expression (inactive in this assay) [1]: inactive
